Assays:
pS6K = experiment: Immunoblot of cell lysates after MEDI-573, mTORi, combination; format: cell-based
Procedure: (§1) To examine the effect of MEDI-573, mTORi, and combination of both on IGF signaling, RD-ES, SJSA-1, and KHOS cells were treated with these agents for 4 hours. After separation of the cell lysates by gel electrophoresis, the proteins were detected by immunoblotting.

[1] = tested on: RD-ES (Ewing's sarcoma) xenografts; experiment: Xenograft efficacy study in mice; format: in vivo; conditions: RD-ES xenograft model
From the text: Although proliferation of SK-ES-1 and SJCRH30 cells was inhibited by MEDI-573 in vitro in the absence of exogenous IGFs, the in vivo growth of these two models was not effected by MEDI-573 treatment.
The combination treatments were tolerated as no significant body weight loss was observed (FIG. 17B).
For in vivo efficacy studies, five million sarcoma cells in 50% matrigel were inoculated subcutaneously into each female athymic nude mice. When tumors reach approximately 150-200 mm^3, mice were randomly assigned into groups (10 mice per group). MEDI-573 was administrated intraperitoneally twice per week at indicated doses. The dose regimen for AZD2014 was oral once every day, for rapamycin was intraperitoneal injection every 3 days. Tumor volumes were measured twice weekly with calipers. Tumor growth inhibition was calculated on the last day of study relative to the initial and final mean tumor volume of the control group.

RD-ES cells = experiment: Cytotoxicity assay, MEDI-573 and mTOR inhibitors; format: cell-based; conditions: agents alone or in combination (FIG. 14)
pAKT = experiment: Immunoblot of cell lysates after MEDI-573, mTORi, combination; format: cell-based; conditions: all 3 cell lines, 4 hours
Procedure: as §1

p4EBP1 = experiment: as above; format: cell-based; conditions: single agent, 4 hours
Procedure: as §1

Q: Which results are given for `CNC(=O)c1cccc(-c2ccc3c(N4CCOC[C@@H]4C)nc(N4CCOC[C@@H]4C)nc3n2)c1` [AZD2014]?
A: phosphorylation of pS6K (pS6K; RD-ES cells): inhibited phosphorylation of pS6K; phosphorylation of pS6K (pS6K; SJSA-1 or KHOS cells): did not inhibit phosphorylation of pS6K; tumor growth inhibition ([1]; AZD2014 combination study (FIG. 16A)): 51%; decrease in cell viability (RD-ES cells): 55%

Q: Which pS6K (pS6K; all 3 cell lines (RD-ES, SJSA-1, KHOS), 4 hours) does the source give for `CO[C@H]1C[C@@H]2CC[C@@H](C)[C@@](O)(O2)C(=O)C(=O)N2CCCC[C@H]2C(=O)O[C@H]([C@H](C)C[C@@H]2CC[C@@H](O)[C@H](OC)C2)CC(=O)[C@H](C)/C=C(\C)[C@@H](O)[C@@H](OC)C(=O)[C@H](C)C[C@H](C)/C=C/C=C/C=C/1C` [rapamycin] here?
A: completely inhibited pS6K

Q: What about the “phosphorylation of AKT” value (pAKT) of the same compound?
A: induced phosphorylation of AKT

Q: What about the “phosphorylation of 4EBP1” value (p4EBP1) of the same compound?
A: did not have effect

Q: What about the tumor growth inhibition ([1]; rapamycin combination study (FIG. 17A)) of the same compound?
A: 44%

Q: And the “decrease in cell viability” value (RD-ES cells)?
A: 34%

Reference: patent US20160324962A1, “COMPOSITIONS AND METHODS FOR TREATING SARCOMA” (MEDIMMUNE, LLC, priority 2013, published 2016)
